According to US8067602B2, “Asymmetric cyanine fluorescent dyes, compositions and their use in staining biological samples” (Shenzhen Mindray Bio-Medical Electronics Co., Ltd., priority 2008, dated 2011):

Experiments:
[1] = test system: soft-shelled turtle (Trionyx sinensis) liver RNA; experiment: Fluorescence intensity of dye in PBS with soft-shelled turtle liver RNA (excitation 633 nm); type: binding; details: for ability to bind to nucleic acids versus Dye-0: concluded from FIG. 11; for increase in fluorescence intensity after binding RNA, comparison of dyes: identical concentrations, FIG. 11; for Relative fluorescence intensity after binding RNA / Relative fluorescence intensity before binding RNA: in PBS; for Relative fluorescence intensity after binding RNA: bound with turtle liver RNA; for Relative fluorescence intensity before binding RNA: no RNA; for Ratio of increase in fluorescence (after vs before binding): turtle liver RNA in PBS
Experimental: (§1) An amount of Dye-1 was accurately weighed and sufficiently dissolved in 2.5 mL methanol/ethylene glycol (50:50 vol/vol) to prepare a dye solution at a concentration of 5 mM. This solution was filtered before use. Separate amounts of soft-shelled turtle (Trionyx sinensis) liver RNA were weighed and dissolved in PBS to obtain PBS buffers containing 30 μg/mL, 10 μg/mL, 3 μg/mL, 1 μg/mL of RNA. 2-μL aliquots of the prepared 5 mM dye solution were accurately measured and respectively combined in 1 mL PBS with 1 μL of the PBS buffers containing different concentrations of RNA. After reacting for a period of time, the complexes were detected for their emission spectra at the selected excitation wavelength of 633 nm. The detection temperature was at room temperature. The instrument used was fluorescence spectrophotometer Model FL-4500.
FIG. 4 is a comparison of the relative fluorescence strength of Dye-1 in PBS before and after it is bound with RNA. As can likewise be seen in the figure, when Dye-1 formed complexes with RNA, there occurred a rapid increase in fluorescence intensity accompanied by a certain degree of red shift of fluorescence, with the maximum […] peak at about 655 nm in the near-infrared region, which can avoid the interference from the background fluorescence of the organisms per se and therefore improve the accuracy of detection.
(§2) The detection procedures followed were those described in Example 10 and Example 11. The fluorescence spectra for the complexes of Dye-2 with different concentrations of DNA or RNA are shown in FIG. 5 and FIG. 6, respectively. The comparisons of fluorescence for Dye-2 before and after it is bound with DNA or with RNA in PBS are shown in FIG. 7 and FIG. 8, respectively.
(§3) The detection procedures followed were those described in Example 10 and Example 11. The comparisons of fluorescence for Dye-3 before and after it bound with DNA or with RNA in PBS are shown in FIG. 9 and FIG. 10, respectively.
Table 2 compares the ratios of increase in fluorescence for Dye-1, Dye-2 and Dye-3 after vs before they bound with soft-shelled turtle (Trionyx sinensis) liver RNA in PBS.
The detection procedure followed was that described in Example 10. The fluorescence spectra for Dye-1, Dye-2 and Dye-0 after they bound in identical concentrations with soft-shelled turtle (Trionyx sinensis) liver RNA are shown in FIG. 11.

[2] = Fluorescence quantum yield in ethanol; type: physicochemical; details: room temperature, triplicate, Rhodamine B as standard
Experimental: Each of the dyes were detected in triplicate at room temperature. Fluorescence quantum yields were calculated and averaged. With Rhodamine B as the standard (φF=0.97, ethanol), the fluorescence quantum yield for the known compound M in the ethanol solution was calculated to be φF=1.099×10^−2; for Dye-1, φF=1.590×10^−2; for Dye-2, φF=1.248×10^−2; and for Dye-3, φF=1.181×10^−2. The instrument used was UV-Vis spectrophotometer Model Lambda 35, and fluorescence spectrophotometer Model FL-4500.

[3] = test system: salmon sperm DNA; experiment: Fluorescence intensity of dye in PBS with salmon sperm DNA (excitation 633 nm); type: binding; details: for fluorescence of the dye per se in PBS without nucleic acid: PBS without DNA/RNA; for Relative fluorescence intensity after binding DNA / Relative fluorescence intensity before binding DNA: in PBS; for Relative fluorescence intensity after binding DNA: bound with salmon sperm DNA; for Relative fluorescence intensity before binding DNA: no DNA; for Ratio of increase in fluorescence (after vs before binding): salmon sperm DNA in PBS
Experimental: as §1, with “salmon sperm DNA” for “soft-shelled turtle (Trionyx sinensis) liver RNA”, “containing” for “containing 30 μg/mL, 10 μg/mL,”, “mg/mL,” for “μg/mL,”, “mg/mL, 0.3 mg/mL, 0.1 mg/mL” for “μg/mL”, “DNA.” for “RNA.”
FIG. 2 is a comparison of the relative fluorescence strength of Dye-1 in PBS before and after it is bound with DNA.
as §2, §3
Table 1 compares the ratios of increase in fluorescence for Dye-1, Dye-2 and Dye-3 after vs before they bound with salmon sperm DNA in PBS.

[4] = ethanol; cited from earlier work

SMILES | Relative fluorescence intensity after binding RNA [1] | Relative fluorescence intensity before binding RNA [1] | Ratio of increase in fluorescence (after vs before binding) [1] | fluorescence quantum yield φF [2] | Relative fluorescence intensity after binding DNA [3] | Relative fluorescence intensity before binding DNA [3] | Ratio of increase in fluorescence (after vs before binding) [3] | change of fluorescence emission strength of dye/RNA complexes with RNA concentration ([1]; RNA buffers 1-30 μg/mL, FIG. 3) | ability to bind to nucleic acids versus Dye-0 [1] | increase in fluorescence intensity after binding RNA, comparison of dyes [1] | change of fluorescence emission strength of dye/DNA complexes with DNA concentration ([3]; DNA buffers 0.1-3 mg/mL, FIG. 1) | fluorescence of the dye per se in PBS without nucleic acid [3] | fluorescence quantum yield φF of the standard [4]
CCOC(=O)CCCCC[n+]1c(/C=C/C=C2\C=CN(Cc3ccccc3)c3ccccc32)sc2ccccc21.[Br-] [Dye-1] | 83.24 | 1.82 | 46 | 1.590×10^−2 | 68.63 | 1.82 | 38 | increased rapidly with the increase in RNA concentration | superior to Dye-0 | largest magnitude of increase in fluorescence intensity | increased rapidly with the increase in DNA concentration | scarcely generated any fluorescence | 
CCN(CC)c1ccc2c(-c3ccccc3C(=O)O)c3ccc(=[N+](CC)CC)cc-3oc2c1.[Cl-] [Rhodamine B] |  |  |  |  |  |  |  |  |  |  |  |  | 0.97
CCN1C=C/C(=C\C=C\c2sc3ccccc3[n+]2CC)c2ccccc21.[I-] [Dye-0, reference compound] |  |  |  | 1.099×10^−2 |  |  |  |  |  |  |  |  | 

Second part, led by results:

Relative fluorescence intensity after binding RNA [1] | Relative fluorescence intensity before binding RNA [1] | Ratio of increase in fluorescence (after vs before binding) [1] | fluorescence quantum yield φF [2] | Relative fluorescence intensity after binding DNA [3] | Relative fluorescence intensity before binding DNA [3] | Ratio of increase in fluorescence (after vs before binding) [3] | SMILES | change of fluorescence emission strength of dye/RNA complexes with RNA concentration ([1]; RNA buffers 1-30 μg/mL, FIG. 3) | ability to bind to nucleic acids versus Dye-0 [1] | increase in fluorescence intensity after binding RNA, comparison of dyes [1] | change of fluorescence emission strength of dye/DNA complexes with DNA concentration ([3]; DNA buffers 0.1-3 mg/mL, FIG. 1) | fluorescence of the dye per se in PBS without nucleic acid [3] | fluorescence quantum yield φF of the standard [4]
33.57 | 1.64 | 20 | 1.181×10^−2 | 94.37 | 1.64 | 55 | OCCN1C=C/C(=C\C=C\c2sc3ccccc3[n+]2CCOc2ccccc2)c2ccccc21.[Br-] [Dye-3] |  |  |  |  | weak fluorescence | 
37.28 | 0.97 | 38 | 1.248×10^−2 | 102.93 | 0.97 | 106 | CCOC(=O)CCCN1C=C/C(=C\C=C\c2sc3ccccc3[n+]2CCO)c2ccccc21.[Br-] [Dye-2] |  | superior to Dye-0 | marked increase in fluorescence intensity |  | scarcely generated any fluorescence | 
